From patent US8637050B2, “Peptide vaccines against group A streptococci” (The United States of America, as represented by the …, priority 2001, dated 2014)
No end group written: not given here.

How the values were obtained:
[1] = system: rabbit sera prepared against whole M protein; assay: ELISA: peptide recognition by anti-M protein rabbit sera; format: binding; settings: for immunoreactivity of peptide with anti-M protein rabbit sera (ELISA): rabbit sera against whole M protein of the respective serotype
Experimental: Overlapping peptides representing each M type were assessed for their immunogenicity using ELISA and dot-immunoblot.
(§1) Levels of anti-M protein antibodies in mouse sera were determined by an enzyme-linked immunosorbent assay (ELISA) using either synthetic peptides or whole M protein as antigen. Microtiter plates (DYNEX Immulon 2 HB) were coated with 10 μg/ml antigen in 10 mM phosphate-buffered saline (PBS) at 4° C. overnight. Plates were rinsed three times with wash buffer (0.05% Tween 20 in 10 mM PBS, pH 7.2) and blocked with 1% BSA in PBS for one hour at 37° C. The appropriate test sera were applied at a starting dilution of 1:1000 and serially diluted two fold down the plate in PBS. Plates were incubated at 37° C. for 30 minutes and subsequently rinsed three times. Goat anti-rabbit or goat anti-mouse Ig-peroxidase conjugate diluted 1:10,000 in PBS was added to all wells and incubated for two hours at 37° C. Plates were rinsed three times with wash buffer and freshly prepared TMB peroxidase (Kirkegaard and Perry Laboratories) was added. Reactions were quenched with 0.18 M H2SO4 after 30 minutes at room temperature and OD450 was measured with a Labsystems Multiskan plate reader using Ascent software. ELISA titers are expressed as the reciprocal of the last dilution which gave a reading OD450>0.10.
The immunoreactivity of several synthetic peptides was determined by ELISA using rabbit sera prepared against whole M protein. The synthetic peptides are representative of relatively small portions of the M protein N-terminus; therefore, it was advantageous to determine if the epitopes contained within particular peptides were immunoreactive with sera prepared against whole M protein. It was shown that the whole anti-M protein rabbit sera of the respective serotypes could bind to each of the synthetic peptides within that serotype. However, some peptides were more highly immunoreactive than others, thus being better suited for use in the animal studies.

[2] = system: anti-M protein antibodies in mouse sera; assay: ELISA of sera of mice immunized s.c. with peptide in alum (immunogenicity); format: in vivo, mice (Swiss Webster)
Experimental: as §1
(§2) Mice (6 week old female Swiss Webster, Harley-Sprague) were immunized subcutaneously (s.c.) with either the peptide in alum or alum alone for control groups. Peptides were rotated in the alum mixture for 2 hours at 4° C. and stored at 4° C. overnight prior to use.

[3] = system: GAS; assay: Opsonophagocytosis assay in vitro with sera of immunized mice; format: cell-based, Group A streptococci; settings: human whole blood, 3 hours
Experimental: (§3) Opsonophagocytosis assays were performed as previously described in Lancefield, R. C., Persistence of type-specific antibodies in man following infection with group A streptococci, 1959, J. Immunol., 89:307. Briefly, diluted serum (50 μl) was added to mid-log phase GAS (10^3 CFU) in Todd-Hewitt broth (50 μl) and whole, heparinized blood (500 μl) from a nonopsonic human donor. Mixtures were briefly vortexed and placed at 37° C. in a shaker for 3 hours. Dilutions were then plated on trypticase soy agar plates (5% sheep blood) to quantitate viable organisms. The % killing is expressed as [(CFU control-CFU test)/CFU control]×100.
Each of the sera tested positive in the assay and was able to reduce the amount of viable bacteria relative to controls.

[4] = system: GAS M type M12; assay: Opsonophagocytosis / bactericidal activity in vitro, GAS M type M12; format: cell-based, Group A streptococci
Experimental: as §3
(§4) Some of the peptides tested in the previous examples were tested for cross-type protection using the methods described above. […] The peptide tested and serotype against which it was tested is indicated.

[5] = system: GAS M type M3; assay: Opsonophagocytosis / bactericidal activity in vitro, GAS M type M3; format: cell-based, Group A streptococci
Experimental: as §3, §4

[6] = system: GAS M type M43; assay: Opsonophagocytosis / bactericidal activity in vitro, heterologous GAS M type M43; format: cell-based, Group A streptococci
Experimental: as §3, §4

[7] = system: streptococci (GAS); assay: Nasopharyngeal colonization challenge in vaccinated mice; format: in vivo; settings: vaccinated mice relative to alum-only control mice; nasal wash 24 hours after 10^4 CFU challenge
Experimental: as §2
(§5) Mice were challenged intranasally one week after the final booster injection was administered. Prior to being challenged, mice were anesthetized with a ketamine/xylazine mixture. Mice were then given 10^4-10^5 CFU (10 μl) of streptococci intranasally via a microliter pipette. They were sacrificed 24 hours after the challenge and the nasopharyngeal passages were washed with approximately 100 μl physiological saline which was collected and immediately placed on ice. Dilutions of the wash were then plated on trypticase soy agar plates (5% sheep blood) and incubated at 37° C. for 18 hours to quantitate viable organisms. Nasopharyngeal colonization in immunized mice was compared to non-immunized controls. Statistical analysis of the NP data was accomplished using the t-test and rank sum test.
Nasopharyngeal (NP) colonization challenge experiments were performed on mice vaccinated (s.c.) with either M3-1 or M3-2 peptide in alum in comparison to control animals which received alum only. The nasopharyngeal colonization challenge was performed by doing a nasal wash 24 hours after challenge. […]

[8] = system: GAS M type M3 or M43; assay: Reduction of colonization in mice, colonizing GAS M type M3 or M43; format: in vivo
Experimental: as §2, §5
Some of the peptides were tested for reduction of colonization of GAS in mice. […] The peptides were administered together but were not chemically combined in any way. […] Some of the mice were colonized by M3, and some of the mice were colonized by M43.

[9] = system: GAS M type M1; assay: Opsonophagocytosis / bactericidal activity in vitro, GAS M type M1; format: cell-based, Group A streptococci
Experimental: as §3, §4

[10] = system: GAS M type M1; assay: Reduction of colonization in mice, colonizing GAS M type M1; format: in vivo

Sequence | immunoreactivity of peptide with anti-M protein rabbit sera (ELISA) [1] | ELISA (elicitation of antibodies) [2] | Opsono (in vitro) [3] | % CFU reduction [4] | reduction of M3 type bacteria ([5]; in vitro versus control) | % CFU reduction ([5]; in vitro, GAS M type M3) | reduction of M43 type bacteria ([6]; in vitro versus control) | % CFU reduction ([6]; in vitro, heterologous GAS M type M43) | Reduction of colonization [7] | cross-type protection in vivo ([8]; mice colonized by M3 or M43) | % CFU reduction ([8]; mice, colonizing GAS M type M3 or M43, reduction overall) | immunoreactivity by ELISA using rabbit sera prepared against whole M protein [1] | % CFU reduction [9] | % CFU reduction [10]
CDHSDLVAEKQRLEDLGQKFE [Peptide M12-1] | highest reactivity | yes | yes | 70-80% | – | – | – | – | – | – | – | – | – | –
CGEFPRHVKLKNEIENLLDQV [Peptide M3-2] | highest reactivity | yes | yes | – | significantly reduce | 90-95% | significantly reduce | 60-80% | 67% | capable in vivo of cross-type protection | 67% (P < 0.30) | – | – | –
CIRLRHENKDLKARLENAMEV [Peptide M1-3] | – | yes | yes | – | – | – | – | – | – | – | – | confirmed | 80-95% | 90% (P < 0.10)
